How the values were obtained:
retinal ganglion cells = experiment: Viability of retinal ganglion cells (RGCs) in TTT laser optic nerve injury (glaucoma) model; format: in vivo, C57BL/6 mice; settings: TTT laser model mice, rodent chow containing 50 mg/kg, fed 2 weeks; RGCs labeled day 13, counted 24 h later; FIG. 1
Protocol: (§1) Group 3: Experimental group (n=7) fed with a rodent chow containing 50 mg/kg of a pharmaceutical composition including compound 1 of experimental example 1 as an active ingredient, as a glaucoma model.
(§2) 8-week-old C57BL/6 mice were anesthetized with an intraperitoneal injection of a mixture of ketamine (100 mg/kg) and xylazine (5 mg/kg), and a mydriatic agent was applied to dilate the pupils of the eyes. Thereafter, an application of transpupillary thermotherapy (TTT), 200 spot size, 50-mW power, and 30-sec duration, was performed over the optic disc of an eye. The aiming beam of the laser was focused on the centre of the optic disc, a viscoelastic material was instilled, a cover glass was placed, and laser beams were irradiated while confirming the optic disc through the dilated pupils by naked eyes. The thus-established optic nerve injury model will be hereinafter referred to as a TTT laser model. […]
Twenty-four hours after labeling, the animals were euthanized and the eyes were enucleated and fixed for 2 hours with neutral formalin. […] Under a fluorescence microscope (×400), the fluorescently labeled retinal ganglion cells were counted in 12 regions in the four quadrants of each retina approximately 0.5 mm, 1 mm and 1.5 mm from the edge of the optic disc. […]

axons of the optic nerve = experiment: Axonal viability (Bodian staining) in TTT laser optic nerve injury (glaucoma) model; format: in vivo, C57BL/6 mice; settings: TTT laser model mice, rodent chow containing 50 mg/kg; day 14 after laser irradiation; FIG. 2
Protocol: as §1, §2
The retinal cross-section and the optic nerve cross-section were treated with a silver solution for 48 hours, and color development was carried out using a reducing agent, followed by toning and fixation. […] In order to evaluate the axonal viability, the stained axons were counted with a light microscope (×1000), in 20 regions at intervals of 10 in the four quadrants of each retina, from the center of the optic nerve tissue section slide. […]

## CC1(C)CCC2=C(O1)c1ccccc1C(=O)C2=O [Compound 1, β-lapachone]
Retinal ganglion cells
  density of retinal ganglion cells relative to the TTT control group (Group 2): ≥ 1.7 fold
Axons of the optic nerve
  axonal density relative to the TTT control group (Group 2): ≥ 1.5 fold

— patent US20110020448A1, “PHARMACEUTICAL COMPOSITION FOR THE TREATMENT AND PREVENTION OF GLAUCOMA” (MAZENCE, INC., priority 2007, published 2011)
